Experimental findings from patent publication US20070077215A1, “Administration of phenylfurymethylthiazolidine-2,4-dione or phenylthienymethylthiazolidine-2,4-dione compounds for promoting and/or inducing and/or stimulating the pigmentation of keratinous substances and/or limiting their depigmentation and/or their whitening” (L'OREAL, priority 2005, published 2007) are described below.

SMILES strings stand for the structures.

This assay addresses T1, Type-1 15-PGDH (Homo sapiens, UniProt P15428).
T1 construct: made in house
T1 sequence (P15428 1-266): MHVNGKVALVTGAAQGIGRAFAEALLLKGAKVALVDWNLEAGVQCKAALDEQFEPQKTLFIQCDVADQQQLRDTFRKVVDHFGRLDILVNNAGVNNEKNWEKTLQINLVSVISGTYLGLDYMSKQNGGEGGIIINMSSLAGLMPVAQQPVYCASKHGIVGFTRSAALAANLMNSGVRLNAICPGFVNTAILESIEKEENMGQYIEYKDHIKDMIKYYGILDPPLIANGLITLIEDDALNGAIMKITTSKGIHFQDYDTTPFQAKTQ
Nature of the assay: Test on type-1 15-PGDH (spectrophotometric enzyme inhibition). The conditions noted are these: Tris buffer pH 7.4, 1.5 mM β-NAD, 50 μM prostaglandin E2, 37° C., 340 nm; read-out: IC50dh (concentration that reduces the enzymatic activity of 15-PGDH by 50%). Format: biochemical. As to the method:
The enzyme 15-PGDH is obtained as disclosed in FR 02/05067, assigned to the assignee hereof, in suspension in a medium adjusted to a concentration of 0.3 mg/ml and then blocked at −80° C. For the requirements of the test, this suspension is defrosted and stored in ice.
Furthermore, a 100 mM, pH=7.4, Tris buffer comprising 0.1 mM of dithiothreitol (D5545, Sigma-Aldrich, L'isle D'Abeau Chesne, BP 701, 38297, Saint Quentin Fallavier) 1.5 mM of β-NAD (N6522, Sigma-Aldrich, L'isle D'Abeau Chesne, BP 701, 38297, Saint Quentin Fallavier) and 50 μM of prostaglandin E2 (P4172, Sigma-Aldrich, L'isle D'Abeau Chesne, BP 701, 38297, Saint Quentin Fallavier) is prepared.
0.965 ml of this buffer (adjusted beforehand to 37° C.) is introduced into the cell of a spectrophotometer (Perkin-Elmer, Lambda 2) thermostatically controlled at 37° C., the measuring wavelength of which is adjusted to 340 nm. 0.035 ml of enzymatic suspension at 37° C. is introduced into the cell concomitantly with the recording (corresponding to an increase in the optical density at 340 nm). The maximum reaction rate is recorded.
The test values (comprising compound 1) are compared with the control value (without compound 1); the results shown represent either the percentage of inhibition of the enzymatic activity of 15-PGDH for a given concentration of compound of formula (I) or the concentration at which compound 1 reduces the enzymatic activity of 15-PGDH by 50%, namely IC50dh.
Turning to `O=C1NC(=O)C(Cc2ccc(-c3ccc(C(F)(F)F)cc3)s2)S1` (stereo not drawn) [Compound 5, 5-({5-[4-(trifluoromethyl)phenyl]thien-2-yl}methyl)-1,3-thiazolidine-2,4-dione], the IC50 came out at 17.7 µM.

For the compound `O=C1N=C(O)C(Cc2ccc(-c3ccc(C(=O)O)cc3)o2)S1` (stereo not drawn) [Compound 1, 4-{5-[(2,4-dioxo-1,3-thiazolidin-5-yl)methyl]-2-furyl}benzoic acid], the IC50 amounted to 3 µM.

Take `CCOC(=O)c1cccc(-c2ccc(CC3SC(=O)NC3=O)o2)c1` (stereo not drawn) [Compound 4, Ethyl 3-{5-[(2,4-dioxo-1,3-thiazolidin-5-yl)methyl]-2-furyl}benzoate]: the IC50 was determined as 4.6 µM.

As for `O=C1NC(=O)C(Cc2ccc(-c3cccc(CO)c3)s2)S1` (stereo not drawn) [Compound 7, 5-({5-[3-(Hydroxymethyl)phenyl]-2-thienyl}methyl)-1,3-thiazolidine-2,4-dione], the IC50 was found to be 37.6 µM.

As to `O=C1NC(=O)C(Cc2ccc(-c3cccc(C(F)(F)F)c3)o2)S1` (stereo not drawn) [Compound 2, 5-[5-(3-(trifluoromethyl)phenyl)fur-2-ylmethyl]-1,3-thiazolidine-2,4-dione], the IC50 was 8.2 µM.

Take `O=C1NC(=O)C(Cc2ccc(-c3cccc(Cl)c3)o2)S1` (stereo not drawn) [Compound 3, 5-{[5-(3-chlorophenyl)-2-furyl]methyl}-1,3-thiazolidine-2,4-dione]: the IC50 stood at 5.2 µM.
